# Laboratory results as given in PMC9099123 (Clinical and Translational Science, 2022).
# Where “and” joins values, the source holds several entries; their conditions need not be identical. Identical values can stand only once.
# What was measured:
# [1] = Plasma PK of enzalutamide and N-desmethyl enzalutamide in men with mCRPC
# [2] = Plasma PK of digoxin and rosuvastatin; conditions: for AUC(0-inf) / AUC(0-t) / Cmax / Vd/F / half-life: male, human, in vivo; for AUC(0-inf): AUCinf; for AUC(0-t): AUClast; for Vd/F: Vz/F; for half-life: t½
# [3] = test system: BCRP; assay: Effect of enzalutamide on PK of rosuvastatin; type: in vivo, human
# [4] = Safety and tolerability; type: in vivo, human; conditions: for TEAEs considered related to the drug: single dose in cocktail, days 1 and 64
# [5] = Urine PK of digoxin in men with mCRPC; type: in vivo, human; conditions: for CL renal: male, human, oral, CLR; for CL renal / Aelast%, GLSM / Aelast%, Mean ± SD / Aelast%, Median (range) / Aelast, Median (range): urine; for Aelast, Mean ± SD: urine up to 24 h
# [6] = test system: P-gp; assay: Effect of enzalutamide on PK of digoxin; type: in vivo, human
# [7] = test system: CYP2C9; conditions: previous clinical DDI studies, cited from earlier work
# [8] = test system: CYP2C19; conditions: previous clinical DDI studies, cited from earlier work
# [9] = clinical; conditions: male, human, plasma
# [10] = test system: CYP3A4; conditions: human hepatocytes; ref data on file; cited from earlier work
# [11] = test system: CYP3A4; conditions: previous clinical DDI studies, cited from earlier work
# [12] = test system: P-gp; conditions: co-administration with rifampin; cited from earlier work
# [13] = test system: BCRP; conditions: co-administered with rifampin; cited from earlier work
# [14] = GLSM, plasma, Enzalutamide + cocktail (day 64)
# [15] = Mean ± SD, plasma, Cocktail (day 1)
# [16] = Mean ± SD, plasma, Enzalutamide + cocktail (day 64)
# [17] = Median (range), plasma, Cocktail (day 1)
# [18] = Median (range), plasma, Enzalutamide + cocktail (day 64)
# [19] = plasma, Enzalutamide + cocktail (day 64)
# [20] = rosuvastatin co-administered with enzalutamide versus taken alone
# [21] = rosuvastatin plasma, day 64 vs day 1
# [22] = Enzalutamide + cocktail (day 64)
# [23] = digoxin co-administered with enzalutamide versus taken alone
# [24] = digoxin plasma, day 64 vs day 1
# [25] = following enzalutamide, 2 patients
smiles,measurement,setting,value
CC1(C)C(=O)N(c2ccc(C#N)c(C(F)(F)F)c2)C(=S)N1c1ccc(C(N)=O)c(F)c1 [N‐desmethyl enzalutamide],Mean Ctrough,[1]; day 35,9100 ng/mL
same,"AUCtau, Mean ± SD",[1]; day 64,259000 ± 37900 ng·h/mL
same,"AUCtau, Median (range)",[1]; day 64,251 (189–327) h·µg/ml
same,"Cmax, Median (range)",[1]; day 64,12.1 (8.9–15.3) µg/ml
same,"Ctrough, Mean ± SD",[1]; day 64,11600 ng/mL and 11600 ± 1900 ng/mL
same,"Ctrough, Median (range)",[1]; day 64,11.7 (7.7–15.0) µg/ml
same,"Cmax, Mean ± SD","[1]; day 64, enzalutamide 160 mg oral once daily from day 8",12300 ± 1700 ng/mL
same,Mean Ctrough,[1]; day 68,11900 ng/mL
same,Mean Ctrough,[1]; day 71,12100 ng/mL
CC(C)c1nc(N(C)S(C)(=O)=O)nc(-c2ccc(F)cc2)c1/C=C/[C@@H](O)C[C@@H](O)CC(=O)O [rosuvastatin],AUC(0-inf),"[2]; GLSM, plasma, Cocktail (day 1)",62.7 ng·h/mL
same,AUC(0-inf),[2]; [14],56 ng·h/mL
same,AUC(0-inf),[2]; [15],69.5 ng·h/mL
same,AUC(0-inf),[2]; [16],59.7 ng·h/mL
same,AUC(0-inf),[2]; [17],68.6 ng·h/mL
same,AUC(0-inf),[2]; [18],55.5 ng·h/mL
same,AUC(0-t),"[2]; GLSM, plasma, Cocktail (day 1)",56.7 ng·h/mL
same,AUC(0-t),[2]; [14],48.8 ng·h/mL
same,AUC(0-t),[2]; [15],61.8 ng·h/mL
same,AUC(0-t),[2]; [16],52.8 ng·h/mL
same,AUC(0-t),[2]; [17],56.1 ng·h/mL
same,AUC(0-t),[2]; [18],48.4 ng·h/mL
same,Cmax,"[2]; GLSM, plasma, Cocktail (day 1)",4.3 ng/mL
same,Cmax,[2]; [17],4.71 ng/mL
same,Cmax,[2]; [18],4.49 ng/mL
same,Vd/F,[2]; [15],5400 ± 3950 L
same,Vd/F,[2]; [16],5420 ± 3510 L
same,Vd/F,[2]; [17],4310 L
same,Vd/F,[2]; [18],3490 L
same,half-life,[2]; [15],22.5 ± 11.4 h
same,"CL/F, Mean ± SD","[2]; plasma, Cocktail (day 1)",163 ± 68.5 L/h
same,"CL/F, Median (range)","[2]; plasma, Cocktail (day 1)",146 (94.5–366) L/h
same,"tmax, Median (range)","[2]; plasma, Cocktail (day 1)",4.0 (1.0–6.0) h
same,"CL/F, Mean ± SD",[2]; [19],186 ± 62.4 L/h
same,"CL/F, Median (range)",[2]; [19],180 (91.6–314) L/h
same,"tmax, Median (range)",[2]; [19],3.0 (0.5–6.0) h
same,increase in Cmax (GLSM ratio),[3]; [20],6%
same,reduction in AUClast (GLSM ratio),[3]; [20],14%
same,"AUCinf, GLSM ratio (95% CI)",[3]; [21],89.3 (80.0–99.8)
same,"AUClast, GLSM ratio (95% CI)",[3]; [21],86.1 (77.5–95.7)
same,"Cmax, GLSM ratio (95% CI)","[3]; rosuvastatin plasma, enzalutamide + cocktail (day 64) vs cocktail (day 1)",106.3 (94.7–119.3)
same,TEAEs considered related to the drug,[4],no TEAEs were considered to be related
C[C@H]1O[C@@H](O[C@H]2[C@@H](O)C[C@H](O[C@H]3[C@@H](O)C[C@H](O[C@H]4CC[C@@]5(C)[C@H](CC[C@@H]6[C@@H]5C[C@@H](O)[C@]5(C)[C@@H](C7=CC(=O)OC7)CC[C@]65O)C4)O[C@@H]3C)O[C@@H]2C)C[C@H](O)[C@@H]1O [digoxin],"digoxin plasma concentrations, all patients","[2]; cocktail day 1, 0.5–168 h postdose, above LLOQ",> 10 pg/mL
same,AUC(0-inf),"[2]; GLSM, plasma, Cocktail (day 1)",24.1 ng·h/mL
same,AUC(0-inf),[2]; [14],32.1 ng·h/mL
same,AUC(0-inf),[2]; [15],24.6 ng·h/mL
same,AUC(0-inf),[2]; [17],25.1 ng·h/mL
same,AUC(0-t),"[2]; GLSM, plasma, Cocktail (day 1)",21.7 ng·h/mL
same,AUC(0-t),[2]; [14],28 ng·h/mL
same,AUC(0-t),[2]; [15],22.1 ng·h/mL
same,AUC(0-t),[2]; [16],28.7 ng·h/mL
same,AUC(0-t),[2]; [17],22.7 ng·h/mL
same,AUC(0-t),[2]; [18],27.1 ng·h/mL
same,Cmax,[2]; [17],1.47 ng/mL
same,Cmax,[2]; [18],1.62 ng/mL
same,Vd/F,[2]; [15],785 ± 138 L
same,Vd/F,[2]; [16],710 ± 114 L
same,Vd/F,[2]; [17],786 L
same,Vd/F,[2]; [18],727 L
same,half-life,[2]; [15],52.3 ± 8.2 h
same,half-life,[2]; [16],63.5 ± 9.5 h
same,half-life,[2]; [17],50.5 h
same,"CL/F, Mean ± SD","[2]; plasma, Cocktail (day 1)",10.6 ± 2.3 L/h
same,"CL/F, Median (range)","[2]; plasma, Cocktail (day 1)",9.9 (7.4–16.3) L/h
same,"tmax, Median (range)","[2]; plasma, Cocktail (day 1)",1.50 (0.50–3.00) h
same,"CL/F, Mean ± SD",[2]; [19],7.9 ± 1.7 L/h
same,"CL/F, Median (range)",[2]; [19],7.8 (4.6–11.6) L/h
same,"tmax, Median (range)",[2]; [19],1.00 (0.50–2.50) h
same,"Cmax, Mean ± SD","[2]; plasma, Enzalutamide + cocktail (day 64), enzalutamide 160 mg once daily",1.69 ± 0.384 ng/mL
same,CL renal,"[5]; Mean ± SD, Cocktail (day 1)",105 mL/min
same,CL renal,"[5]; Mean ± SD, Enzalutamide + cocktail (day 64)",81.7 mL/min
same,CL renal,"[5]; Median (range), Cocktail (day 1)",100 mL/min
same,CL renal,"[5]; Median (range), Enzalutamide + cocktail (day 64)",78.3 mL/min
same,"Aelast, Mean ± SD",[5]; Cocktail (day 1),0.05 ± 0.01 mg
same,"Aelast, Mean ± SD",[5]; [22],0.05 ± 0.01 mg
same,"Aelast%, GLSM",[5]; Cocktail (day 1),19.4%
same,"Aelast%, Mean ± SD",[5]; Cocktail (day 1),20.1 ± 5.1%
same,"Aelast%, Median (range)",[5]; Cocktail (day 1),21.3 (9.2–31.5) %
same,"Aelast, Median (range)",[5]; Cocktail (day 1),0.05 (0.02–0.08) mg
same,"Aelast%, GLSM",[5]; [22],17.3%
same,"Aelast%, Mean ± SD",[5]; [22],18.2 ± 5.4%
same,"Aelast%, Median (range)",[5]; [22],17.9 (6.6–26.5) %
same,"Aelast, Median (range)",[5]; [22],0.04 (0.02–0.07) mg
same,increase in AUCinf (GLSM ratio),[6]; [23],33%
same,increase in AUClast (GLSM ratio),[6]; [23],29%
same,increase in Cmax (GLSM ratio),[6]; [23],17%
same,"AUCinf, GLSM ratio (95% CI)",[6]; [24],133.5 (125.3–142.2)
same,"AUClast, GLSM ratio (95% CI)",[6]; [24],129.1 (121.0–137.7)
same,"Cmax, GLSM ratio (95% CI)","[6]; digoxin plasma, enzalutamide + cocktail (day 64) vs cocktail (day 1)",117.0 (105.8–129.3)
same,decrease in Aelast%,"[6]; digoxin urine, co-administered with enzalutamide",10%
same,"Aelast%, GLSM ratio (95% CI)","[6]; digoxin urine, day 64 vs day 1",89.6 (79.1–101.6)
same,decrease in CLR,"[6]; digoxin, co-administered with enzalutamide",22%
same,TEAEs considered related to the drug,[4],no TEAEs were considered to be related
CNC(=O)c1ccc(N2C(=S)N(c3ccc(C#N)c(C(F)(F)F)c3)C(=O)C2(C)C)cc1F [enzalutamide],inducer class,[7]; CYP2C9,moderate inducer
same,reduction of exposure of probe substrate,[7]; CYP2C9 probe substrate,56%
same,Mean Ctrough,[1]; day 35,14100 ng/mL
same,"AUCtau, Median (range)",[1]; day 64,344 (210–435) h·µg/ml
same,"Ctrough, Mean ± SD",[1]; day 64,13900 ng/mL
same,"Ctrough, Median (range)",[1]; day 64,14.1 (8.3–19.4) µg/ml
same,"Ctrough, Mean ± SD","[1]; day 64, listed as Enzalutamide",13900 ± 2900 ng/mL
same,Mean Ctrough,[1]; day 68,14000 ng/mL
same,Mean Ctrough,[1]; day 71,14000 ng/mL
same,inducer class,[8]; CYP2C19,moderate inducer
same,reduction of exposure of probe substrate,[8]; CYP2C19 probe substrate,70%
same,AUC,[9]; oral,333000 ± 57800 ng·h/mL
same,Cmax,[9]; oral,17200 ng/mL
same,Cmax,"[9]; po, 160 mg",17100 ± 2800 ng/mL
same,effect of enzalutamide on the PK of rosuvastatin (class),[3]; 90% CI for Cmax and AUCinf GLSM ratios within 80–125%,no effect
same,effect of enzalutamide on P-gp inhibition (class),"[6]; GLSM ratios of digoxin less than two-fold, enzalutamide 160 mg once daily",mild
same,tolerability,[4]; enzalutamide alone and in combination with digoxin and rosuvastatin,well tolerated
same,patients with decreased white blood cell count (TEAE),[4]; [25],8.3%
same,patients with dizziness (TEAE),[4]; [25],8.3%
same,patients with urinary tract infection (TEAE),[4]; [25],8.3%
same,patients with TEAEs considered potentially related to enzalutamide,"[4]; one eosinophilia, two decreased white blood cell count, three patients",12.5%
same,deaths,[4]; whole study,no deaths
same,serious TEAEs,[4]; whole study,No serious TEAEs were reported
same,severity of all TEAEs,[4]; whole study,mild
same,"CYP3A4 mRNA induction, % of positive control",[10],95.9%
same,increase of CYP3A4 enzyme activity,[10],up to 3.88 fold
same,increase of CYP3A4 mRNA levels,[10],≤ 6.90 fold
same,inducer class,[11]; CYP3A4,strong inducer
same,reduction of exposure of probe substrate,[11]; CYP3A4 probe substrate,86%
CO[C@H]1/C=C/O[C@@]2(C)Oc3c(C)c(O)c4c(O)c(c(/C=N/N5CCN(C)CC5)c(O)c4c3C2=O)NC(=O)/C(C)=C\C=C\[C@H](C)[C@H](O)[C@@H](C)[C@@H](O)[C@@H](C)[C@H](OC(C)=O)[C@@H]1C [rifampin],decrease of AUC of digoxin,[12],30%
same,decrease of Cmax of digoxin,[12],58%
same,decrease in Cmax of rosuvastatin,[13],30%
